Measured values reported in US7102009B2, “Substituted amine derivatives and methods of use” (Amgen Inc., priority 2001, dated 2006).

What follows are compounds tested on Human Umbilical Vein Endothelial cells (VEGF-stimulated HUVEC proliferation) (assay: HUVEC Proliferation Assay (VEGF-stimulated)). Settings: VEGF 50 ng/mL, 72 h incubation, CyQuant readout, read-out: inhibited VEGF-stimulated HUVEC proliferation at a level below (IC50).
Type: cell-based
Description: Human Umbilical Vein Endothelial cells are purchased from Clonetics, Inc., as cryopreserved cells harvested from a pool of donors. These cells, at passage 1, are thawed and expanded in EBM-2 complete medium, until passage 2 or 3. The cells are trypsinized, washed in DMEM+10% FBS+antibiotics, and spun at 1000 rpm for 10 min. Prior to centrifugation of the cells, a small amount is collected for a cell count. After centrifugation, the medium is discarded, and the cells are resuspended in the appropriate volume of DMEM+10% FBS+antibiotics to achieve a concentration of 3×10^5 cells/mL. Another cell count is performed to confirm the cell concentration. The cells are diluted to 3×10^4 cells/mL in DMEM+10% FBS+antibiotics, and 100 μL of cells are added to a 96-well plate. The cells are incubated at 37° C. for 22 h.
Prior to the completion of the incubation period, compound dilutions are prepared. Five-point, five-fold serial dilutions are prepared in DMSO, at concentrations 400-fold greater than the final concentrations desired. 2.5 μL of each compound dilution are diluted further in a total of 1 mL DMEM+10% FBS+antibiotics (400× dilution). Medium containing 0.25% DMSO is also prepared for the 0 μM compound sample. At the 22-hour timepoint, the medium is removed from the cells, and 100 μL of each compound dilution is added. The cells are incubated at 37° C. for 2-3 h.
During the compound pre-incubation period, the growth factors are diluted to the appropriate concentrations. Solutions of DMEM+10% FBS+antibiotics, containing either VEGF or bFGF at the following concentrations: 50, 10, 2, 0.4, 0.08, and 0 ng/mL are prepared. For the compound-treated cells, solutions of VEGF at 550 ng/mL or bFGF at 220 ng/mL for 50 ng/mL or 20 ng/mL final concentrations, respectively, are prepared since 10 μL of each will be added to the cells (110 μL final volume). At the appropriate time after adding the compounds, the growth factors are added. VEGF is added to one set of plates, while bFGF is added to another set of plates. For the growth factor control curves, the media on wells B4-G6 of plates 1 and 2 are replaced with media containing VEGF or bFGF at the varying concentrations (50-0 ng/mL). The cells are incubated at 37° C. for an additional 72 h.
At the completion of the 72 h incubation period, the medium is removed, and the cells are washed twice with PBS. After the second wash with PBS, the plates are tapped gently to remove excess PBS, and the cells are placed at −70° C. for at least 30 min. The cells are thawed and analyzed using the CyQuant fluorescent dye (Molecular Probes C-7026), following the manufacturer's recommendations. The plates are read on a Victor/Wallac 1420 workstation at 485 nm/530 nm (excitation/emission). Raw data are collected and analyzed using a 4-parameter fit equation in XLFit. IC50 values are then determined.
`CC(C)(C)c1ccc(NC(=O)c2cccnc2Nc2ccc3cn[nH]c3c2)cc1CCCN1CCOCC1` [Example 57, N-[4-(tert-Butyl)-3-(3-morpholin-4-ylpropyl)phenyl][2-(1H-indazol-6-ylamino)(3-pyridyl)]carboxamide] was tested, and the IC50 was < 50 nM. For `CN1CCN(CCCc2ccc(NC(=O)c3cccnc3Nc3ccc4cn[nH]c4c3)cc2)CC1` [Example 61, [2-(1H-Indazol-6-ylamino)(3-pyridyl)]-N-{4-[3-(4-methylpiperazinyl)propyl]phenyl}carboxamide], the IC50 was < 50 nM. `O=C(Nc1ccc2ccn(CCN3CCOCC3)c2c1)c1cccnc1Nc1ccc2cn[nH]c2c1` [Example 62, [2-(1H-Indazol-6-ylamino)(3-pyridyl)]-N-[1-(2-morpholin-4-ylethyl)indol-6-yl]carboxamide] was tested, and the IC50 was < 50 nM. For `CC(C)(CCN1CCOCC1)c1ccc(NC(=O)c2cccnc2Nc2ccc3cn[nH]c3c2)cc1` [Example 63, N-[4-(1,1-Dimethyl-3-morpholin-4-ylpropyl)phenyl][2-(1H-indazol-6-ylamino)(3-pyridyl)]carboxamide], the IC50 was < 50 nM. `COCCOCCOC(c1ccc(NC(=O)c2cccnc2Nc2ccc3cn[nH]c3c2)cc1)(C(F)(F)F)C(F)(F)F` [Example 64] was tested, and the IC50 was < 50 nM. In the case of `O=C(Nc1ccc(C(OCCN2CCCCC2)(C(F)(F)F)C(F)(F)F)cc1)c1cccnc1Nc1ccc2cn[nH]c2c1` [Example 65, [2-(1H-Indazol-6-ylamino)(3-pyridyl)]-N-{4-[2,2,2-trifluoro-1-(2-piperidylethoxy)-1-(trifluoromethyl)ethyl]phenyl}carboxamide], the IC50 is reported as < 50 nM. For `CC(C)(C)c1ccc(NC(=O)c2ccc(F)nc2Nc2ccc3cn[nH]c3c2)cc1` [Example 66, N-[4-(tert-Butyl)phenyl][6-fluoro-2-(1H-indazol-6-ylamino)(3-pyridyl)]carboxamide], the IC50 was < 50 nM. `CC(C)c1ccc(NC(=O)c2ccc(F)nc2Nc2ccc3cn[nH]c3c2)cc1` [Example 67, [6-Fluoro-2-(1H-indazol-6-ylamino)(3-pyridyl)]-N-[4-(methylethyl)phenyl]carboxamide] was tested, and the IC50 was < 50 nM. With `O=C(Nc1cccc(C(F)(F)F)c1)c1ccc(F)nc1Nc1ccc2cn[nH]c2c1` [Example 68, [6-Fluoro-2-(1H-indazol-6-ylamino)(3-pyridyl)]-N-[3-(trifluoromethyl)phenyl]carboxamide] the IC50 was < 50 nM. For `O=C(Nc1cc(CCCN2CCOCC2)cc(C(F)(F)F)c1)c1cccnc1Nc1ccc2cn[nH]c2c1` [Example 70, 2-(1H-Indazol-6-ylamino)-N-[3-(3-morpholin-4-yl-propyl)-5-trifluoromethyl-phenyl]-nicotinamide], the IC50 was < 50 nM. For `O=C(Nc1cc(CCCN2CCCCC2)cc(C(F)(F)F)c1)c1cccnc1Nc1ccc2cn[nH]c2c1` [Example 71, 2-(1H-Indazol-6-ylamino)-N-[3-(3-piperidin-1-yl-propyl)-5-trifluoromethyl-phenyl]-nicotinamide], the IC50 was < 50 nM. With `CN1CCC(Cc2cc(NC(=O)c3cccnc3Nc3ccc4cn[nH]c4c3)cc(C(F)(F)F)c2)CC1` [Example 72, 2-(1H-Indazol-6-ylamino)-N-[3-(1-methyl-piperidin-4-ylmethyl)-5-trifluoromethyl-phenyl]-nicotinamide] the IC50 was < 50 nM. `O=C(Nc1cc(OC2CCNCC2)cc(C(F)(F)F)c1)c1cccnc1Nc1ccc2cn[nH]c2c1` [Example 74, 2-(1H-Indazol-6-ylamino)-N-[3-(piperidin-4-yloxy)-5-trifluoromethyl-phenyl]-nicotinamide] was tested, and the IC50 was < 50 nM. In the case of `O=C(Nc1cc(OCC2CCNCC2)cc(C(F)(F)F)c1)c1cccnc1Nc1ccc2cn[nH]c2c1` [Example 75, 2-(1H-Indazol-6-ylamino)-N-[3-(piperidin-4-ylmethoxy)-5-trifluoromethyl-phenyl]-nicotinamide], the IC50 is reported as < 50 nM. `CC1(C)NS(=O)(=O)c2cc(NC(=O)c3cccnc3Nc3ccc4cn[nH]c4c3)ccc21` [Example 76, N-(3,3-Dimethyl-1,1-dioxo-2,3-dihydro-1H-116-benzo[d]isothiazol-6-yl)-2-(1H-indazol-6-ylamino)-nicotinamide] was tested, and the IC50 was < 50 nM. `CC1(C)CCC(C)(C)c2cc(NC(=O)c3cccnc3Nc3ccc4cn[nH]c4c3)ccc21` [Example 77, 2-(1H-Indazol-6-ylamino)-N-(5,5,8,8-tetramethyl-5,6,7,8-tetrahydro-naphthalen-2-yl)-nicotinamide] was tested, and the IC50 was < 50 nM. With `CN1CCC(COc2cc(NC(=O)c3cccnc3Nc3ccc4cn[nH]c4c3)ccc2C(F)(F)C(F)(F)F)CC1` [Example 78, 2-(1H-Indazol-6-ylamino)-N-[3-(1-methyl-piperidin-4-ylmethoxy)-4-pentafluoroethyl-phenyl]-nicotinamide] the IC50 was < 50 nM. `CC(C)N1CCC(COc2cc(NC(=O)c3cccnc3Nc3ccc4cn[nH]c4c3)ccc2C(F)(F)C(F)(F)F)CC1` [Example 79, 2-(1H-Indazol-6-ylamino)-N-[3-(1-isopropyl-piperidin-4-ylmethoxy)-4-pentafluoroethyl-phenyl]-nicotinamide] was tested, and the IC50 was < 50 nM. For `O=C(Nc1ccc(C(F)(F)C(F)(F)F)c(OC[C@H](O)CN2CCCC2)c1)c1cccnc1Nc1ccc2cn[nH]c2c1` [Example 80, N-[3-(2-Hydroxy-3-pyrrolidin-1-yl-propoxy)-4-pentafluoroethyl-phenyl]-2-(1H-indazol-6-ylamino)-nicotinamide], the IC50 was < 50 nM. For `O=C(Nc1ccc(C(F)(F)C(F)(F)F)c(OCCN2CCCCC2)c1)c1cccnc1Nc1ccc2cn[nH]c2c1` [Example 81, 2-(1H-Indazol-6-ylamino)-N-[4-pentafluoroethyl-3-(2-piperidin-1-yl-ethoxy)-phenyl]-nicotinamide], the IC50 was < 50 nM. `O=C(Nc1ccc(C(F)(F)C(F)(F)F)c(OC[C@@H](O)CN2CCCC2)c1)c1cccnc1Nc1ccc2cn[nH]c2c1` [Example 82, N-[3-(2-Hydroxy-3-pyrrolidin-1-yl-propoxy)-4-pentafluoroethyl-phenyl]-2-(1H-indazol-6-ylamino)-nicotinamide] was tested, and the IC50 was < 50 nM. `O=C(Nc1ccc(C(F)(F)C(F)(F)F)c(OC[C@@H]2CCCN2)c1)c1cccnc1Nc1ccc2cn[nH]c2c1` [Example 83, 2-(1H-Indazol-6-ylamino)-N-[4-pentafluoroethyl-3-(2S-pyrrolidin-2-ylmethoxy)-phenyl]-nicotinamide] was tested, and the IC50 was < 50 nM. For `O=C(Nc1ccc(C(F)(F)C(F)(F)F)c(OC[C@H]2CCCN2)c1)c1cccnc1Nc1ccc2cn[nH]c2c1` [Example 84, 2-(1H-Indazol-6-ylamino)-N-[4-pentafluoroethyl-3-(2R-pyrrolidin-2-ylmethoxy)-phenyl]-nicotinamide], the IC50 was < 50 nM. For `O=C(Nc1ccc(C(F)(F)F)c(OC[C@H]2CCCN2)c1)c1cccnc1Nc1ccc2cn[nH]c2c1` [Example 85, 2-(1H-Indazol-6-ylamino)-N-[3-(pyrrolidin-2-ylmethoxy)-4-trifluoromethyl-phenyl]-nicotinamide], the IC50 was < 50 nM. `O=C(Nc1ccc(C(F)(F)F)c(OCCN2CCCC2)c1)c1cccnc1Nc1ccc2cn[nH]c2c1` [Example 86, 2-(1H-Indazol-6-ylamino)-N-[3-(2-pyrrolidin-1-yl-ethoxy)-4-trifluoromethyl-phenyl]-nicotinamide] was tested, and the IC50 was < 50 nM. `CC(=O)N1CC(C)(C)c2ccc(NC(=O)c3cccnc3Nc3ccc4cn[nH]c4c3)cc21` [Example 87, N-(1-Acetyl-3,3-dimethyl-2,3-dihydro-1H-indol-6-yl)-2-(1H-indazol-6-ylamino)-nicotinamide] was tested, and the IC50 was < 50 nM. `CN1CCC(C(C)(C)c2ccc(NC(=O)c3cccnc3Nc3ccc4cn[nH]c4c3)cc2)CC1` [Example 88, 2-(1H-Indazol-6-ylamino)-N-{4-[1-methyl-1-(1-methyl-piperidin-4-yl)-ethyl]-phenyl}-nicotinamide] was tested, and the IC50 was < 50 nM. With `CC(=O)N1CC(C)(C)Oc2ccc(NC(=O)c3cccnc3Nc3ccc4cn[nH]c4c3)cc21` [Example 89, N-(4-Acetyl-2,2-dimethyl-3,4-dihydro-2H-benzo[1,4]oxazin-6-yl)-2-(1H-indazol-6-ylamino)-nicotinamide] the IC50 was < 50 nM. With `CN1CCC(c2cc(NC(=O)c3cccnc3Nc3ccc4cn[nH]c4c3)cc(C(F)(F)F)c2)CC1` [Example 90, 2-(1H-Indazol-6-ylamino)-N-[3-(1-methyl-piperidin-4-yl)-5-trifluoromethyl-phenyl]-nicotinamide] the IC50 was < 50 nM.
